The values below come from US20120064008A1, “COMPOSITIONS FOR THE TREATMENT OF METASTATIC CANCER AND METHODS OF USE THEREOF” (priority 2009, published 2012).

Data set [1] deals with AT6.1 Dunning rat prostate carcinoma. Briefly: Survival in intravenous AT6.1 Dunning rat prostate carcinoma lung metastasis model. The format is in vivo, nu/nu mice. The note with it: 10 mg/kg three times a week. How it is done: Many anti-tumor drugs are tested only for their ability to prevent primary tumor growth or to prevent the dissemination of metastatic cells. To accomplish this, the drug is usually administered shortly after the primary tumor is established. […] The benzimidazoles described herein were evaluated in an experimental metastases model in the lungs of nude mice following tail-vein injection of Dunning rat AT6.1 prostate carcinoma. […] In order to achieve greater bioavailability, we first solubilized benzimidazoles in DNTC formulation and then diluted with saline prior to injection.
Inbred male nu/nu mice age 6-8 weeks were obtained from Massachusetts General Hospital (Boston, Mass.). The mice were virus antibody free, age and weight matched for experimental use and fed with a balanced rodent diet ad libitum. AT6.1 Dunning rat prostate cells were maintained as described above. 1×10^4 log-phase cells were injected via tail vein in 0.1 mL Hanks solution. Vehicle or drug treatment was started on day 5 post inoculation and given three times a week (Monday, Wednesday and Friday) via intraperitoneal injection in 0.5 mL volume. Benzimidazole drugs were prepared in the combination carrier [DMSO (12.5%), NMP (37.5%), TWEEN®-80 (25%) and CrEL (25%)] and diluted in saline. Vehicle control was prepared by diluting the combination carrier with saline.
During the course of treatment, the mice were monitored for toxicity by measuring body weight. […] Animals were euthanized with CO2 and tissues were collected for further analysis. The animals and experiments used in these studies were approved by the institutional animal care committee according to Children's Hospital Boston ARCH guidelines.
To distinguish differences in survival between these groups, the percent increase in life span (ILS %), defined as the percent increase in the mean time to death of drug-treated animals over the corresponding time to death for vehicle-treated mice, was calculated.

Data set [2] relates to PC-3MLN4 cells. Briefly: Normalized mitotic index (histone H3 phospho-Serine-28), PC-3MLN4. The format is cell-based. The note with it: Homo sapiens, at 1 μM; normalized against vehicle-treated cells; read-out: Normalized mitotic index PC-3MLN4. The text has this: (§1) The mitotic index for each agent was normalized against those obtained from vehicle-treated cells, and compared with the activity of paclitaxel, a known inducer of mitotic arrest.

Data set [3] relates to paclitaxel-resistant DU145-TR prostate cancer cells. Briefly: Cyquant cell viability assay, DU145-TR. The format is cell-based, human. The note with it: 72 hours. How it is done: (§2) The cytotoxic effects of paclitaxel, fenbendazole, and albendazole were compared in paclitaxel-resistant PC3-TR and DU145-TR prostate cancer cells with their paclitaxel-sensitive counterparts, PC3 and DU145 cells. Cells were treated for 72 hours with vehicle, paclitaxel, fenbendazole or albendazole in various doses. Cell viability was measured using Cyquant assay, and percent control was calculated by dividing the fluorescent reading from drug-treated cells with those from vehicle-treated cells, indicating percentage of cell survival.

The test system of data set [4] is PC-3TxR cells. Briefly: Subcutaneous PC-3TxR tumors in nude mice. The note with it: 10 mg/kg three times a week for 3 weeks. The format is in vivo.
Experimental: PC-3TxR cells were inoculated subcutaneously in the flanks of the nude mice. When the tumors reached approximately 100 mm^3 in size, the mice were treated with vehicle, paclitaxel (10 mg/kg), fenbendazole (100 mg/kg) or albendazole (100 mg/kg) three times a week for 3 weeks. These benzimidazoles were prepared in DNTC and diluted with saline prior to injection.
PC-3TxR cells were inoculated subcutaneously in the flanks of the nude mice. When the tumors reached approximately 100 mm3 in size, the mice were treated with vehicle, paclitaxel (10 mg/kg), fenbendazole (100 mg/kg) or albendazole (100 mg/kg) three times a week for 3 weeks. These benzimidazoles were prepared in DNTC and diluted with saline prior to injection.
Data set [5] has as its system PC3-TR cells. Nature of the data set: Normalized mitotic index, PC3-TR. The format is cell-based, human. The note with it: 100 nM.
Data set [6] deals with DU145-TR cells. Briefly: % apoptotic cells, DU145-TR. The format is cell-based, human. The note with it: 100 nM.
For data set [7], the system named is AT6.1 cells. Nature of the data set: Normalized mitotic index (histone H3 phospho-Serine-28), AT6.1. The note with it: Rattus norvegicus, at 1 μM; normalized against vehicle-treated cells; read-out: Normalized mitotic index AT6.1. The format is cell-based.
Excerpt: as §1

In data set [8] the test system is PC3 cells. Nature of the data set: Normalized mitotic index, PC3. The note with it: 100 nM. The format is cell-based, human.
Data set [9] deals with PC-3M cells. Nature of the data set: Normalized mitotic index (histone H3 phospho-Serine-28), PC-3M. The format is cell-based. The note with it: Homo sapiens, at 1 μM, normalized against vehicle-treated cells, read-out: Normalized mitotic index PC-3M.
Excerpt: as §1

Data set [10] deals with PC3 cells. Briefly: % apoptotic cells, PC3. The format is cell-based, human. The note with it: 100 nM.
Data set [11] deals with DU145-TR cells. Nature of the data set: Normalized mitotic index, DU145-TR. The format is cell-based, human. The note with it: 100 nM.
Data set [12] concerns DU145 cells. Nature of the data set: % apoptotic cells, DU145. The format is cell-based, human. The note with it: 100 nM.
The test system of data set [13] is paclitaxel-resistant PC3-TR prostate cancer cells. Nature of the data set: Cyquant cell viability assay, PC3-TR. The format is cell-based, human. The note with it: 72 hours. How it is done:
as §2

Data set [14] deals with DU145 cells. Briefly: Normalized mitotic index, DU145. The format is cell-based, human. The note with it: 100 nM.
The test system of data set [15] is PC3-TR cells. Nature of the data set: % apoptotic cells, PC3-TR. The format is cell-based, human. The note with it: 100 nM.
Data set [16] is described as follows: Combination with paclitaxel, Cyquant cell growth inhibition, CompuSyn median-dose effect analysis. The note with it: alone or in combination, read-out: Dose Tax. The format is cell-based. How it is done: Cell growth inhibition assays were performed using Cyquant reagent as described above. Drug interactions were quantitated by median-dose effect analysis and combination index values as well as dose reduction index were derived using CompuSyn software (ComboSyn, Inc.), as described previously in the literature. CI values of <1, =1, and >1 indicate synergism, additivity and antagonism between the drugs, respectively.
All benzimidazole drugs were prepared using the combination carrier and diluted with culture medium prior to treatment.

Like-named read-outs stand apart in the source and are kept apart here.

Consider `CC(=O)O[C@H]1C(=O)[C@@]2(C)[C@H]([C@H](OC(=O)c3ccccc3)[C@]3(O)C[C@H](OC(=O)[C@H](O)[C@@H](NC(=O)c4ccccc4)c4ccccc4)C(C)=C1C3(C)C)[C@]1(OC(C)=O)CO[C@@H]1C[C@@H]2O` [Paclitaxel], for which the “percent increase in life span (ILS %)” value in data set [1] came to 30.2%. The fold induction at 1 µM in [2] was determined as 2.34; in data set [7], 2.1; in data set [9] it was 2.43. Further, the figures for the “cytotoxic effect against DU145-TR (DU-145TxR)” value in data set [3] and in data set [3] (listed as taxol) were “refractory” and “less effective”, respectively. Moreover, the “growth of PC-3TxR tumors compared to the vehicle treated group” value in [4] is given as “significantly greater”. In addition, the “Normalized mitotic index (6 hours) PC3-TR” value in [5] turned out to be 1.56. The “% Apoptotic cells (72 hours) DU145-TR” value in data set [6] is reported as 11.5%. Besides, the “Normalized mitotic index (6 hours) PC3” value in data set [8] is on record as 1.32. Further, in data set [10], the “% Apoptotic cells (72 hours) PC3” value came to 16.4%. Also, the “Normalized mitotic index (6 hours) DU145-TR” value in [11] stood at 0.86. In data set [12], the “% Apoptotic cells (72 hours) DU145” value was determined as 37.3%. Also, the “cytotoxic effect against PC3-TR (PC-3TxR)” value in [13] is “refractory”; in data set [13] (listed as taxol), “less effective”. The “Normalized mitotic index (6 hours) DU145” value in [14] is listed as 3.52. Moreover, the “% Apoptotic cells (72 hours) PC3-TR” value in data set [15] is 8.9%. Further, the EC50 in data set [16] (Fa 0.50, listed as Tax) worked out at 937 nM; in [16] (Fa 0.50), 936 nM; in [16] (Fa 0.60) it was 1392 nM.
